Patent US11739098B2 (BRISTOL-MYERS SQUIBB COMPANY, priority 2017, dated 2023)

Key:
Assay type in all cases: cell-based
human TLR8 = target: T1, human TLR8 (Homo sapiens, UniProt Q9NR97); experiment: TLR8 inhibition reporter assay (HEK-Blue cells, SEAP reporter, R848 stimulation); settings: HEK-Blue cells overexpressing human TLR8, SEAP reporter, R848 15.9 μM
T1 construct: host or cells: HEK-Blue cells (HEK293-derived reporter line)
T1 sequence (Q9NR97 27-1041): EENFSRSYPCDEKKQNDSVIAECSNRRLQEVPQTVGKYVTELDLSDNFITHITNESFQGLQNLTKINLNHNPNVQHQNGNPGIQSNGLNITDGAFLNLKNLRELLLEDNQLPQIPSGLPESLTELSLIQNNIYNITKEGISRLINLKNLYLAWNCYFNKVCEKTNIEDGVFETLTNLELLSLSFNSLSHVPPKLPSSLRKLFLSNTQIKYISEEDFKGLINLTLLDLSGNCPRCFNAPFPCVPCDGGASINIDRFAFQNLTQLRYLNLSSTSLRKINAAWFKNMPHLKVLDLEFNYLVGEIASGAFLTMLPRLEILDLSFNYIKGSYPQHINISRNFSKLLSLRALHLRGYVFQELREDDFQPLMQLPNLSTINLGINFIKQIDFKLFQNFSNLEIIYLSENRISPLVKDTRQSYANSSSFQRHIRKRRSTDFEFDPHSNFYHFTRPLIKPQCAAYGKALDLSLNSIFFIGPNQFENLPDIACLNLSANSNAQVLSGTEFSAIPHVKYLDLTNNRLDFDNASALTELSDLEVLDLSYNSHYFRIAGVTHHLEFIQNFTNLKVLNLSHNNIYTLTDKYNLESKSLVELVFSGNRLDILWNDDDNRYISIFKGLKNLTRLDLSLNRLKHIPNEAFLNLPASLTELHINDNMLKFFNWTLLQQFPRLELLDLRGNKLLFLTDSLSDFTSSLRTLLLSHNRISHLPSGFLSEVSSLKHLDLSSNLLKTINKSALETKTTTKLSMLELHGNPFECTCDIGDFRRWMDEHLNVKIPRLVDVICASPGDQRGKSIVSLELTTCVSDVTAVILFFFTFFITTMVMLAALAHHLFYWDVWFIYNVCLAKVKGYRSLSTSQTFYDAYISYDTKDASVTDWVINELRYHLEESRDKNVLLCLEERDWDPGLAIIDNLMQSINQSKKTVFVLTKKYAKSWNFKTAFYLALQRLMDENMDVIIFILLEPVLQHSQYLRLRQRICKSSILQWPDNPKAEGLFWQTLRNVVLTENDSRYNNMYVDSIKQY
Method in brief: (§1)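 Agonists (final): TLR7 gardiquimod 7.5 μM; TLR8 R848 15.9 μM; TLR9 ODN2006 5 nM. HEK-Blue reporter cells, 30 min RT compound pre-incubation, 0.05 nM–50 μM dose range, 22 h at 37 °C, colorimetric SEAP detection medium. % inhibition relative to agonist+DMSO and known-inhibitor wells.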

human TLR7 = target: T2, human TLR7 (Homo sapiens, UniProt Q9NYK1); experiment: TLR7 inhibition reporter assay (HEK-Blue cells, SEAP reporter, gardiquimod stimulation); settings: HEK-Blue cells overexpressing human TLR7, SEAP reporter, gardiquimod 7.5 μM
T2 construct: host or cells: HEK-Blue cells (HEK293-derived reporter line)
T2 sequence (Q9NYK1 27-1049): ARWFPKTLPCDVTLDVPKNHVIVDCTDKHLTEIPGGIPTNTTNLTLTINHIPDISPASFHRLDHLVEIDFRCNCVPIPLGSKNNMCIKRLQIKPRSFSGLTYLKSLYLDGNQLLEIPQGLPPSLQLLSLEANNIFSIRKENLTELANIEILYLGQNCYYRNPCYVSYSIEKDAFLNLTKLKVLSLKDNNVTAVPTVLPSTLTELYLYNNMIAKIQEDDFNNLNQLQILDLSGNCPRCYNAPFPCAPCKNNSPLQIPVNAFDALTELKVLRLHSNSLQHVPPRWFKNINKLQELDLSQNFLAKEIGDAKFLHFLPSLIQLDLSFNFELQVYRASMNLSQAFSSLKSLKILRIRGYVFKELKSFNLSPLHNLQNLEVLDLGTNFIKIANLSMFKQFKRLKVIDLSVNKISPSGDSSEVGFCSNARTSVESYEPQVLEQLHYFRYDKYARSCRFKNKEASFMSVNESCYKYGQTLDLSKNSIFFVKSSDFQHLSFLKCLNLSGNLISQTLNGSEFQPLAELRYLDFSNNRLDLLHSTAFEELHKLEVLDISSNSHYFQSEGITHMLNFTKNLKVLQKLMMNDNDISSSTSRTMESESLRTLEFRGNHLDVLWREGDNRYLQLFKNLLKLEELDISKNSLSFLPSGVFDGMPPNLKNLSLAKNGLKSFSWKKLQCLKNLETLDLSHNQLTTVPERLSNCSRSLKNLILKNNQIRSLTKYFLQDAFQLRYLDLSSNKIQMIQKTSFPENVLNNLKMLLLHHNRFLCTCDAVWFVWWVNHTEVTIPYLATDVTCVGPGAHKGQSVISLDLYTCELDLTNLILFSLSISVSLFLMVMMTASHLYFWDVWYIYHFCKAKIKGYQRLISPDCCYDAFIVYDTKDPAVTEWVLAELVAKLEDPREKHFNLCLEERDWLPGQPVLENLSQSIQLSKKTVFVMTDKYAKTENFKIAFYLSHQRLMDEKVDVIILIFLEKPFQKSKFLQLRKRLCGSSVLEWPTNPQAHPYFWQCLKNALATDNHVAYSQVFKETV
Method in brief: as §1

human TLR9 = target: T3, human TLR9 (Homo sapiens, UniProt Q9NR96); experiment: TLR9 inhibition reporter assay (HEK-Blue cells, SEAP reporter, ODN2006 stimulation); settings: HEK-Blue cells overexpressing human TLR9, SEAP reporter, ODN2006 5 nM
T3 construct: host or cells: HEK-Blue cells (HEK293-derived reporter line)
T3 sequence (Q9NR96 26-1032): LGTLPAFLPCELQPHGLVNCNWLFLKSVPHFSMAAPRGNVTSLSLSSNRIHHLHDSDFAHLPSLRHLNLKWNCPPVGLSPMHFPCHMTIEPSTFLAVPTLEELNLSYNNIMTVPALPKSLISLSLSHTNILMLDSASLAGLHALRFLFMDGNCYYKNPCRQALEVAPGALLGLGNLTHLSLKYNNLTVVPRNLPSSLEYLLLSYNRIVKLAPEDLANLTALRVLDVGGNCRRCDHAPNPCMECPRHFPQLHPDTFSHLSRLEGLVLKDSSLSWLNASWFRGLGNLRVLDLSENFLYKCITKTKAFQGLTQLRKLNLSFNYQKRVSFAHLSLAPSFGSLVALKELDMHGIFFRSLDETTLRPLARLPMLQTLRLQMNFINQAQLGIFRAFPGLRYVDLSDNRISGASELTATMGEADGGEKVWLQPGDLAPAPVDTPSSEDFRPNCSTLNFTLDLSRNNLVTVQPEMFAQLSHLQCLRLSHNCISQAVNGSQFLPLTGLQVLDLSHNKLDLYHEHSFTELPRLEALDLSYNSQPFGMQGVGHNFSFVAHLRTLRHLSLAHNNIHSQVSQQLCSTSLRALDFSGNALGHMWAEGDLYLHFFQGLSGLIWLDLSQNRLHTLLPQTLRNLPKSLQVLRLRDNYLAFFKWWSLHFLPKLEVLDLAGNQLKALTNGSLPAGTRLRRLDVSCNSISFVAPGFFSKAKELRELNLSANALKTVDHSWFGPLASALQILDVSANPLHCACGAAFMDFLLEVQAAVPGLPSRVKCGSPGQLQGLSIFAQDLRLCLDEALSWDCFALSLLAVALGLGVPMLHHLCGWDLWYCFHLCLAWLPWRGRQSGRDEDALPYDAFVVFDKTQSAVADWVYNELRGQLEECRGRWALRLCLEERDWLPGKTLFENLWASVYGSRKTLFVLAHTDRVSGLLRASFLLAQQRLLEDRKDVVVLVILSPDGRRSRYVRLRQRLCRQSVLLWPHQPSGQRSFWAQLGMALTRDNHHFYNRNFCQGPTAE
Method in brief: as §1

SMILES | IC50 (human TLR8) | IC50 (human TLR7) | IC50 (human TLR9)
CC(C)c1c(-c2cccn3ncnc23)[nH]c2ccc(C3CCN(C(=O)CN(C)C)CC3)cc12 [Example 514, 1-(4-(2-([1,2,4]triazolo[1,5-a]pyridin-8-yl)-3-isopropyl-1H-indol-5-yl)piperidin-1-yl)-2-(dimethylamino)ethan-1-one] | 100 to 1000 nM | 100 to 1000 nM | 1000 to 50000 nM
CCc1c(-c2ccnc3[nH]cc(C)c23)[nH]c2ccc(C3CCNCC3)cc12 [Example 217, 4-(3-ethyl-5-(piperidin-4-yl)-1H-indol-2-yl)-3-methyl-1H-pyrrolo[2,3-b]pyridine] | 100 to 1000 nM | 100 to 1000 nM | 100 to 1000 nM
CCc1c(-c2ccn3ncnc3c2)[nH]c2ccc(C3CCNCC3)cc12 [Example 198, 7-(3-ethyl-5-(piperidin-4-yl)-1H-indol-2-yl)-[1,2,4]triazolo[1,5-a]pyridine] | 100 to 1000 nM | < 100 nM | 1000 to 50000 nM
CCc1c(-c2cnc3ncnn3c2)[nH]c2ccc(C3CCNCC3)cc12 [Example 26, 6-(3-ethyl-5-(piperidin-4-yl)-1H-indol-2-yl)-[1,2,4]triazolo[1,5-a]pyrimidine] | 100 to 1000 nM | 100 to 1000 nM | 100 to 1000 nM
CC(C)c1c(-c2ccc3cnnn3c2)[nH]c2ccc(C3CCN(C4COC4)CC3)cc12 [Example 734, 6-(3-isopropyl-5-(1-(oxetan-3-yl)piperidin-4-yl)-1H-indol-2-yl)-[1,2,3]triazolo[1,5-a]pyridine] | 100 to 1000 nM | 100 to 1000 nM | 1000 to 50000 nM
CCc1c[nH]c2nccc(-c3[nH]c4ccc(C5CCNCC5)cc4c3C)c12 [Example 219, 4-(3-methyl-5-(piperidin-4-yl)-1H-indol-2-yl)-3-ethyl-1H-pyrrolo[2,3-b]pyridine] | 100 to 1000 nM | 100 to 1000 nM | 100 to 1000 nM
CCc1c(-c2cnc3ncccn23)[nH]c2ccc(C3CCNCC3)cc12 [Example 29, 3-(3-ethyl-5-(piperidin-4-yl)-1H-indol-2-yl) imidazo[1,2-a]pyrimidine] | < 100 nM | 100 to 1000 nM | 100 to 1000 nM

Other lines, results leading:

IC50 (human TLR8) | IC50 (human TLR7) | IC50 (human TLR9) | SMILES
< 100 nM | < 100 nM | 1000 to 50000 nM | CC(C)c1c(-c2ccn3ncnc3c2)[nH]c2ccc(C3CCNCC3)cc12 [Example 197, 7-(3-isopropyl-5-(piperidin-4-yl)-1H-indol-2-yl)-[1,2,4]triazolo[1,5-a]pyridine]
< 100 nM | < 100 nM | 1000 to 50000 nM | Cc1cc2nnnn2cc1-c1[nH]c2ccc(C3CCNCC3)cc2c1C(C)C [Example 76, 6-(3-isopropyl-5-(piperidin-4-yl)-1H-indol-2-yl)-7-methyltetrazolo[1,5-a]pyridine]
< 100 nM | < 100 nM | 1000 to 50000 nM | CC(C)c1c(-c2ccnc3[nH]ccc23)[nH]c2ccc(C3CCN(C(=O)CN(C)C)CC3)cc12 [Example 564, 2-(dimethylamino)-1-(4-(3-isopropyl-2-(1H-pyrrolo[2,3-b]pyridin-4-yl)-1H-indol-5-yl)piperidin-1-yl)ethan-1-one]
< 100 nM | < 100 nM | 1000 to 50000 nM | CC(C)c1c(-c2cc(CO)c3nnnn3c2)[nH]c2ccc(C3CCN(C4COC4)CC3)cc12 [Example 738, (6-(3-isopropyl-5-(1-(oxetan-3-yl)piperidin-4-yl)-1H-indol-2-yl)tetrazolo[1,5-a]pyridin-8-yl)methanol]
< 100 nM | < 100 nM | 1000 to 50000 nM | CCOc1cc(-c2[nH]c3ccc(C4CCN(CC(=O)NC)CC4)cc3c2C(C)C)cc2ncnn12 [Example 351, 2-(4-(2-(5-ethoxy-[1,2,4]triazolo[1,5-a]pyridin-7-yl)-3-isopropyl-1H-indol-5-yl)piperidin-1-yl)-N-methylacetamide]
< 100 nM | < 100 nM | 1000 to 50000 nM | CC(C)c1c(-c2ccnc3[nH]ncc23)[nH]c2ccc(C3CCN(C(=O)CN(C)C(C)C)CC3)cc12 [Example 585, 2-(isopropyl(methyl)amino)-1-(4-(3-isopropyl-2-(1H-pyrazolo[3,4-b]pyridin-4-yl)-1H-indol-5-yl)piperidin-1-yl)ethan-1-one]
